# Entries after “also recorded” stand apart in the source; their conditions may differ. Where two headings read alike, the source gives them in different places.
# Legend:
# [1] = target: MK-801 binding site of the N-methyl-D-aspartate receptor (NMDAR); test: NMDAR radioligand binding with [3H]MK-801, Method B; parameters: species or system Sprague Dawley rat; conditions: MK-801 site, Method B, male Sprague Dawley rat cortex, 5.0 nM [3H]MK-801; read-out: NMDAR Ki ± SEM
# Procedure: Radioligand Binding—Method B. Affinity of the test compounds for NMDAR was determined in radioligand binding experiments with [^3H]MK-801 by WuXi AppTec (Hong Kong) Limited, under the conditions described in Table 13.
# [2] = HLM stability (High Activity); type: in vitro ADME; conditions: both sexes, human, liver microsomes, pH 7.4, Condition 2 (High Activity), 1.0 mg protein/mL
# How it was run: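 Pooled male and female human liver microsomes, 1.0 mg protein/mL, in 100 mM PBS pH 7.4 with NADPH-regenerating system; compound 1 μM at 37° C, five time points over 60 min. Parent remaining by LC-MS/MS; kel, t1/2 and Clint from linear regression of ln(AUC) versus time.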
# [3] = target: T1, vesicular monoamine transporter 2 (VMAT2) (Homo sapiens, UniProt Q05940); test: Fluorescent substrate uptake inhibition, VMAT2; type: cell-based; conditions: 10 μM, transfected cells
# T1 construct: expressed in transfected cells
# T1 sequence (Q05940 whole entry, species assumed): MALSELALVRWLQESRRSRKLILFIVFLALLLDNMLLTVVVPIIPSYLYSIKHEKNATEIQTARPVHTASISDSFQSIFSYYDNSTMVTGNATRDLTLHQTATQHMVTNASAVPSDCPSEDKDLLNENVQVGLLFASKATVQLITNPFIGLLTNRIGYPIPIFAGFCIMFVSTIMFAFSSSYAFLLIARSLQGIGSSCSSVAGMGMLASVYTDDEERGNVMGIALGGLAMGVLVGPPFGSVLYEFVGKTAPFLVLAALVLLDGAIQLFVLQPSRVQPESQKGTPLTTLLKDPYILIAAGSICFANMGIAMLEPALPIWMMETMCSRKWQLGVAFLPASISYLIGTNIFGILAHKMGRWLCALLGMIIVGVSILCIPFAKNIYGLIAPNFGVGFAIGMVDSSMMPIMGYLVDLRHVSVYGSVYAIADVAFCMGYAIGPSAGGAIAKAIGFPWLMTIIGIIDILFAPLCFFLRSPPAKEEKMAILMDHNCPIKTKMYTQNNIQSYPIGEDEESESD
# [4] = target: T2, norepinephrine transporter (NET) (Homo sapiens, UniProt P23975); test: Fluorescent substrate uptake inhibition, NET; type: cell-based; conditions: 10 μM, HEK293 cells expressing NET
# T2 construct: expressed in transfected cells; host or cells: HEK293
# T2 sequence (P23975 whole entry, species assumed): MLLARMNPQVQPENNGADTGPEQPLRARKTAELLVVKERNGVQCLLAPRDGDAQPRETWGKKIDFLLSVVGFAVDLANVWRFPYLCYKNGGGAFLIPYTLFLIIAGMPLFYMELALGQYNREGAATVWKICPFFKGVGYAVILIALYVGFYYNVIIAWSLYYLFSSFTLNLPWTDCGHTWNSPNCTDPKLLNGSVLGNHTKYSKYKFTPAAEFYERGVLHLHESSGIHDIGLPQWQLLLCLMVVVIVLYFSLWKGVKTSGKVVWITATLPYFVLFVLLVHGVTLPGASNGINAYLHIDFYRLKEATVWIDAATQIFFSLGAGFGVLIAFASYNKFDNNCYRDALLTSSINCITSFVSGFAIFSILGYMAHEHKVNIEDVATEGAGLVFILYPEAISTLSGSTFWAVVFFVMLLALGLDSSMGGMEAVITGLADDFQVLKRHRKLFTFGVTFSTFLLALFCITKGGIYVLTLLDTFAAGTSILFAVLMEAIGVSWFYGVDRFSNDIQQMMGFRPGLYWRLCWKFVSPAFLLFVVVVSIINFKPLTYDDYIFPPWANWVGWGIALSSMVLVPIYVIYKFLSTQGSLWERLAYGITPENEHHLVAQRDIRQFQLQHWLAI
# [5] = target: T3, dopamine transporter (DAT) (Homo sapiens, UniProt Q01959); test: Fluorescent substrate uptake inhibition, DAT; type: cell-based; conditions: 10 μM, CHO cells expressing DAT
# T3 construct: expressed in transfected cells; host or cells: CHO (uptake)
# T3 sequence (Q01959 whole entry, species assumed): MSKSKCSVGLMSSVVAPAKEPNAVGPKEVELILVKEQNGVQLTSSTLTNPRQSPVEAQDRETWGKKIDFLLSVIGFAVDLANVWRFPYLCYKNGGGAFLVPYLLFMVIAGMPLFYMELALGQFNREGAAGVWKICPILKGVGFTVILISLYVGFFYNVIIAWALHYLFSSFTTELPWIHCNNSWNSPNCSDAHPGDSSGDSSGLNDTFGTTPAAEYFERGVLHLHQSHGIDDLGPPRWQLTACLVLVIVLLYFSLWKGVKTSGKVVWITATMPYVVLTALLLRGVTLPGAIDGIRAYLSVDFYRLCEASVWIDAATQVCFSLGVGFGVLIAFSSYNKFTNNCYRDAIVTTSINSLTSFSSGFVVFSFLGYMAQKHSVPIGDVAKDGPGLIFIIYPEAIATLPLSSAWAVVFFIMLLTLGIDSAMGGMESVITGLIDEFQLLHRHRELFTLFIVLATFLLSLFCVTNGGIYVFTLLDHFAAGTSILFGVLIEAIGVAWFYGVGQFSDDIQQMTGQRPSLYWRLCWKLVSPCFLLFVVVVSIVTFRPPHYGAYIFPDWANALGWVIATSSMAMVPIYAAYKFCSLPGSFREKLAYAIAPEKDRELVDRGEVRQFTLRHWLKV
# [6] = target: T4, serotonin transporter (SERT) (Homo sapiens, UniProt P31645); test: Fluorescent substrate uptake inhibition, SERT; type: cell-based; conditions: 10 μM, HEK293 cells expressing SERT
# T4 construct: expressed in transfected cells; host or cells: HEK293
# T4 sequence (P31645 whole entry, species assumed): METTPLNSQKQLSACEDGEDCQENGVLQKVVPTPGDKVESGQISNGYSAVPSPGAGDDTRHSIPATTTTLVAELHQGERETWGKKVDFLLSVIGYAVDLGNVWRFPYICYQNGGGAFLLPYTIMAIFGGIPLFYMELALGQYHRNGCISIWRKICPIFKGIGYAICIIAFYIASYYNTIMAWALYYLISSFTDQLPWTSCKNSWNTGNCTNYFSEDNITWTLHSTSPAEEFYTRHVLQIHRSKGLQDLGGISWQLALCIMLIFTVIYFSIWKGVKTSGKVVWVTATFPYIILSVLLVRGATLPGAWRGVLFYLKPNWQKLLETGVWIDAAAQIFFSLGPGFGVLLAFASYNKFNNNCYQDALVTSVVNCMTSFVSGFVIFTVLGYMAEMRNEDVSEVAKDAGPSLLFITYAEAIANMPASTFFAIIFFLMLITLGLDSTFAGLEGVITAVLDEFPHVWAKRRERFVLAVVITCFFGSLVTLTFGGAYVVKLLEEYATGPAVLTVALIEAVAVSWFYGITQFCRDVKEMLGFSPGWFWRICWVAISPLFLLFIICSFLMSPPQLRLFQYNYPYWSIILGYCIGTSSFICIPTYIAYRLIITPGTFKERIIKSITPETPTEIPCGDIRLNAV
# [7] = RLM stability (High Activity); type: in vitro ADME, Sprague Dawley rats
# Procedure: (§1) RLM Stability (High Activity). Pooled RLM from male Sprague Dawley rats (XenoTech R1000, lot #1910100) were used. Microsomal incubations were carried out in 96-well plates in 5 aliquots of 40 μL each (one for each time point). Liver microsomal incubation medium consisted of PBS (100 mM, pH 7.4), MgCl2 (3.3 mM), NADPH (3 mM), glucose-6-phosphate (5.3 mM), and glucose-6-phosphate dehydrogenase (0.67 units/mL), with 1.0 mg of liver microsomal protein per mL. Control incubations were performed by replacing the NADPH-cofactor system with PBS. Test compounds (1 μM, final solvent concentration 1.6%) were incubated with microsomes at 37° C., shaking at 100 rpm. Incubations were performed in duplicate. Five time points over 60 minutes were analyzed. The reactions were stopped by adding 9 volumes of 90% acetonitrile-water to incubation aliquots, followed by protein sedimentation by centrifugation at 5500 rpm for 3 minutes. Supernatants were analyzed for parent compound remaining using a fit-for-purpose liquid chromatography-tandem mass spectrometry (LC-MS/MS) method, with authentic samples of each analyte used for identity confirmation.
# (§2) Data Analysis. The elimination constant (kel), half-life (t1/2) and intrinsic clearance (Clint) were determined in a plot of […] versus time, using linear regression analysis.
# [8] = MLM stability (High Activity); type: in vitro ADME, BALB/c mice; conditions: male, BALB/c, mouse, liver microsomes, pH 7.4, Condition 2 (High Activity), 1.0 mg protein/mL
# How it was run: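 Pooled male BALB/c mouse liver microsomes (1.0 mg/mL) in 100 mM PBS pH 7.4 with NADPH-regenerating system; compound 1 μM, 37 °C, five time points over 60 min, duplicate; NADPH-free controls. Parent remaining by LC-MS/MS; kel, t1/2 and Clint from linear regression of ln(AUC) versus time.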
# [9] = Formation of metabolites 11R/11S in RLM (High Activity conditions); type: in vitro ADME, Sprague Dawley rats; conditions: LC-MS/MS
# Procedure: as §1, with “The reactions were stopped by adding 9 volumes of 90% acetonitrile-water to incubation aliquots, followed by protein sedimentation by centrifugation at 5500 rpm for 3 minutes.” left out
# This condition was also used for experiments measuring the formation of metabolite 11R from compounds 14R and 88R and formation of metabolite 11S from compounds 14S and 88S. The concentrations of 11R and 11S formed during the incubations were quantified using a fit-for-purpose liquid chromatography-tandem mass spectrometry (LC-MS/MS) method, with authentic samples of each analyte used for calibration and identity confirmation.
# MK-801 site of NMDAR = MK-801 site of NMDAR (Rattus norvegicus, UniProt P35439); conditions: read-out: NMDAR Ki ± SEM, from Ebert et al. 1997; cited from earlier work
# [10] = HLM stability (Low Activity); type: in vitro ADME; conditions: both sexes, human, liver microsomes, pH 7.4, Condition 1 (Low Activity), 0.42 mg protein/mL
# Procedure: For some of the compounds, stability was tested under two microsomal incubation conditions, one with normal enzymatic activity (low activity) and one with higher enzymatic loading, longer incubation time, and lower compound concentration (high activity) intended to increase metabolic lability.
# HLM Stability (Low Activity). Pooled HLM from adult male and female donors (XenoTech H0630) were used. Microsomal incubations were carried out in 96-well plates in 5 aliquots of 40 μL, each (one for each time point). Liver microsomal incubation medium consisted of PBS (100 mM, pH 7.4), MgCl2 (3.3 mM), NADPH (3 mM), glucose-6-phosphate (5.3 mM), and glucose-6-phosphate dehydrogenase (0.67 units/mL), with 0.42 mg of liver microsomal protein per mL. Control incubations were performed by replacing the NADPH-cofactor system with PBS. Test compounds (2 μM, final solvent concentration 1.6%) were incubated with microsomes at 37° C., shaking at 100 rpm. Incubations were performed in duplicate. Five time points over 40 minutes were analyzed. The reactions were stopped by adding 12 volumes of 90% acetonitrile-water to incubation aliquots, followed by protein sedimentation by centrifugation at 5500 rpm for 3 minutes. Supernatants were analyzed for parent compound remaining using a fit-for-purpose liquid chromatography-tandem mass spectrometry (LC-MS/MS) method, with authentic samples of each analyte used for identity confirmation.
# as §2
# mice (forced swim test) = test: Forced swim test in mice, 30-minute pre-treatment; type: in vivo, Swiss Webster mice; conditions: s.c., 30 minutes before test, relative to vehicle
# Procedure: Animals. Male Swiss Webster mice, aged 4-5 weeks (body weight 25-30 g, Envigo) were used in the experiments Animals were housed in groups of 4-5 under controlled temperatures and 12-hour light/dark cycles, with ad libitum food (Teklad 7001 rodent diet) and water. These studies were carried out in strict accordance with the recommendations in the Guide for the Care and Use of Laboratory Animals of the National Institutes of Health. All efforts were made to minimize suffering.
# Drugs and Drug Administration. Imipramine hydrochloride was administered intraperitoneally (i.p.) at a dose of 30 mg/kg. Other compounds were tested as the racemates (indicated by “rac” nomenclature) and were administered subcutaneously (s.c.) as the hydrochloride salts. Normal saline was used as the vehicle and all compounds were administered at a volume of 10 mL/kg, 30 minutes before behavioral testing.
# Forced Swim Test (FST). Group size was n=10 per treatment Animals were acclimated to the testing room 30 minutes prior to behavioral testing. Mice were placed individually in a cylinder of water measuring 5 inches wide by 10 inches tall and maintained at 24-25° C. The activity of each mouse was recorded for 6 minutes using Noldus Ethovision tracking software, with periods of inactivity being automatically quantified.
# Statistical Analysis. The data points shown are the mean±standard error of the mean (SEM). Analysis was performed using GraphPad Prism 6. Indicated statistical comparisons represent the results of unpaired, two-tailed t tests relative to vehicle (not corrected for multiple comparisons).
# [11] = target: MK-801 binding site of the N-methyl-D-aspartate receptor (NMDAR); test: NMDAR radioligand binding with [3H]MK-801, Method A; parameters: species or system Wistar rat; conditions: MK-801 site, Method A, Wistar rat brain (minus cerebellum), 5.0 nM [3H]MK-801; read-out: NMDAR Ki ± SEM
# Procedure: Radioligand Binding—Method A. Affinity of the test compounds for NMDAR was determined in radioligand binding experiments with [^3H]MK-801 by Eurofins Panlabs, Inc., using methods adapted from the literature (Javitt et al. 1987; Reynolds et al. 1989) and under the conditions described in Table 12.
# CSDS-susceptible mice = test: Behavioral tests after chronic social defeat stress (CSDS); type: in vivo, C57BL/6 mice; conditions: 10 mg/kg i.p., single dose
# [12] = Oral bioavailability in mice, Method A; type: in vivo; conditions: CD-1 mice; for F: 10 mg/kg; for half-life / Cmax / AUC(0-inf): male, mouse
# Procedure: Animals. Male CD-1 mice were used in these studies Animals were randomly assigned to treatment groups and were fasted for 4 h before dosing.
# Drugs. Test compounds were dissolved in normal saline (ketamine) or de-ionized water (other compounds) and administered intravenously (iv) or orally (po) at a dose of 10 mg/kg (calculated based on freebase) and at a volume of 5 mL/kg body weight. Compounds were tested as the racemates (indicated by “rac” nomenclature) or pure enantiomers (indicated by “R” or “S” nomenclature).
# Sample Collection and Bioanalysis. Blood samples were collected under 2,2,2-tribromoethanol anesthesia (150 mg/kg, ip) from the orbital sinus at 0.083, 0.25, 0.5, 1, 2, 4, 8 and 24 h (4 animals per time point) into microcontainers containing K2EDTA Immediately after collection of blood, mice were euthanized by cervical dislocation and brain samples were collected at the same time points. All samples were immediately processed, flash-frozen, and stored at −70° C. until subsequent analysis. Plasma samples were separated by centrifugation of whole blood and aliquots (50 μL) were mixed with 200 μL of internal standard solution (400 ng/mL in 1:1 v/v CH3CN:MeOH). After mixing by pipetting and centrifuging for 4 min at 6000 rpm, 0.5 μL of each supernatant was analyzed for drug using a fit-for-purpose liquid chromatography-tandem mass spectrometry (LC-MS/MS) method, with authentic samples of each analyte used for calibration and identification. Brain samples (weight 100 mg±1 mg) were dispersed in 500 μL, of internal standard solution (400 ng/mL in 4:1 v/v MeOH:water) using zirconium oxide beads (115 mg±5 mg) in The Bullet Blender® homogenizer for 30 s at speed 8. After homogenization, the samples were centrifuged for 4 min at 14,000 rpm and 0.5 μL of each supernatant was analyzed for drug using a fit-for-purpose LC-MS/MS method, with authentic samples of each analyte used for calibration and identification.
# Data Analysis. The drug concentrations of samples below the lower limit of quantitation (LLOQ) were designated as zero. Pharmacokinetic data analysis was performed using noncompartmental, bolus injection or extravascular input analysis models in WinNonlin 5.2 (PharSight). Data points below LLOQ were presented as missing to improve validity of t112 calculations.
# [13] = male, Sprague Dawley, rat, liver microsomes, pH 7.4, Condition 2 (High Activity), 1 μM, 1.0 mg protein/mL
structure (smiles),measurement,setting,value
"[2H]C([2H])([2H])N[C@]1(c2ccccc2)CCCCC1=O [Compound 88S, (S)-2-((methyl-d3)amino)-2-phenylcyclohexan-1-one]",Ki,[1],800 nM
same,half-life at 1 μM,[2],167 min
same,microsomal CLint at 1 μM,[2],4 µL/min/mg
same,inhibition at 10 µM,[3],-6%
same,inhibition at 10 µM,[4],21.6%
same,inhibition at 10 µM,[5],18.6%
same,inhibition at 10 µM,[6],28.2%
same,metabolic stability compared to non-deuterated counterparts 14R and 14S,[7]; High Activity,increased metabolic stability
same,half-life at 1 μM,[7]; [13],52.8 min
same,microsomal CLint at 1 μM,[7]; [13],13 µL/min/mg
same,half-life at 1 μM,[8],111 min
same,microsomal CLint at 1 μM,[8],6 µL/min/mg
same,formation of metabolites 11R and 11S compared to non-deuterated counterparts,[9],attenuated formation; also recorded: decreased formation
"CN[C@@]1(c2ccccc2Cl)CCCCC1=O (single isomer, unassigned) [(R)-ketamine, ketamine]",Ki,MK-801 site of NMDAR,1400 ± 100 nM
"CNC1(c2ccccc2F)CCCCC1=O (racemic) [Compound 35rac, 2-(2-Fluorophenyl)-2-(methylamino)cyclohexan-1-one]",half-life at 1 μM,[2],148 min
same,microsomal CLint at 1 μM,[2],5 µL/min/mg
same,half-life at 2 μM,[10],171 min
same,microsomal CLint at 2 μM,[10],10 µL/min/mg
same,immobility time in FST,mice (forced swim test),did not have effects
same,Ki,[11],1820 nM
same,"antidepressant-like activity in behavioral tests after CSDS (TST, FST, SPT)",CSDS-susceptible mice,superior to 37rac; also recorded: reversed the pro-depressive effects
same,AUC0-inf (iv),"[12]; brain, 10 mg/kg iv","186,000 ng*min/g"
same,AUC0-inf (po),"[12]; brain, 10 mg/kg po","34,200 ng*min/g"
same,F,[12]; calculated based on brain exposure,18%
same,half-life,"[12]; brain, 10 mg/kg iv, read-out: t1/2 (iv)",16.1 min
same,Cmax,"[12]; brain, 10 mg/kg po",1840 ng/g
same,half-life,"[12]; brain, 10 mg/kg po, read-out: t1/2 (po)",19.1 min
same,AUC(0-inf),"[12]; plasma, 10 mg/kg iv, read-out: AUC0-inf (iv) (converted)",1300 ng·h/mL
same,half-life,"[12]; plasma, 10 mg/kg iv, read-out: t1/2 (iv)",15.1 min
same,Cmax,"[12]; plasma, 10 mg/kg po",618 ng/mL
same,AUC(0-inf),"[12]; plasma, 10 mg/kg po, read-out: AUC0-inf (po) (converted)",363 ng·h/mL
same,half-life,"[12]; plasma, 10 mg/kg po, read-out: t1/2 (po)",19.7 min
same,F,"[12]; plasma, absolute oral bioavailability",28%
"CN[C@]1(c2ccccc2Cl)CCCCC1=O (single isomer, unassigned) [(S)-ketamine, ketamine]",Ki,MK-801 site of NMDAR,300 ± 13 nM

# — patent US11344510B2, “Arylcyclohexylamine derivatives and their use in the treatment of psychiatric disorders” (Gilgamesh Pharmaceuticals, Inc., priority 2019, dated 2022)
